{"source": "paper PMC12096242", "about": "(ACS Omega, 2025)", "data": [{"target": "T1, TcGLIP (MBP-TcGLIP) (Tanacetum cinerariifolium, UniProt H6U1I8)", "T1 sequence (H6U1I8 28-365)": "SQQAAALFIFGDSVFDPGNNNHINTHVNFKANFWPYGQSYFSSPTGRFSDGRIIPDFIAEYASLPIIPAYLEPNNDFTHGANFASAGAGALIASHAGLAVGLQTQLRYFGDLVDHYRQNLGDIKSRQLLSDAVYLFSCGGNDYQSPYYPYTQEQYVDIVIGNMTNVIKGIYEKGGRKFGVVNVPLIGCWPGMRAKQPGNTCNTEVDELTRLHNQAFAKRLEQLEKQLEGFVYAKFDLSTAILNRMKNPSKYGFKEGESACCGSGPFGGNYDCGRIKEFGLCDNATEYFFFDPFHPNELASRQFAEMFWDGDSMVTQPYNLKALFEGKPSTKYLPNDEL", "assay": "HPLC", "units": {"IC50": "nM"}, "values": [{"compound": "C=C/C=C\\CC1=C(C)[C@@H](O[P@@](=O)(CCCCC)Oc2ccc([N+](=O)[O-])cc2)CC1=O", "note": "[1a]", "IC50": 23.4}, {"compound": "C=C/C=C\\CC1=C(C)[C@@H](O[P@](=O)(CCCCC)Oc2ccc([N+](=O)[O-])cc2)CC1=O", "note": "[1b]", "IC50": 245}, {"compound": "C/C=C\\CC1=C(C)[C@@H](O[P@@](=O)(CCCCC)Oc2ccc([N+](=O)[O-])cc2)CC1=O", "note": "[2a, (S)p, (S)c-2-Methyl-4-oxo-3-((Z)-2-buten-1-yl)cyclopent-2-en-1-yl 4-Nitrophenyl n-Pentylphosphonate]", "IC50": 29.5}, {"compound": "C/C=C\\CC1=C(C)[C@@H](O[P@](=O)(CCCCC)Oc2ccc([N+](=O)[O-])cc2)CC1=O", "note": "[2b, (R)p, (S)c-2-Methyl-4-oxo-3-((Z)-2-buten-1-yl)cyclopent-2-en-1-yl 4-Nitrophenyl n-Pentylphosphonate]", "IC50": 347}, {"compound": "CC/C=C\\CC1=C(C)[C@@H](O[P@@](=O)(CCCCC)Oc2ccc([N+](=O)[O-])cc2)CC1=O", "note": "[3a, (S)p, (S)c-2-Methyl-4-oxo-3-((Z)-2-penten-1-yl)cyclopent-2-en-1-yl 4-Nitrophenyl n-Pentylphosphonate]", "IC50": 40.7}, {"compound": "CC/C=C\\CC1=C(C)[C@@H](O[P@](=O)(CCCCC)Oc2ccc([N+](=O)[O-])cc2)CC1=O", "note": "[3b, (R)p, (S)c-2-Methyl-4-oxo-3-((Z)-2-penten-1-yl)cyclopent-2-en-1-yl 4-Nitrophenyl n-Pentylphosphonate]", "IC50": 316}, {"compound": "C=C/C=C\\CC1=C(C)[C@@H](O[P@@](=O)(CCCCCCCC)Oc2ccc([N+](=O)[O-])cc2)CC1=O", "note": "[4a]", "IC50": 69.2}, {"compound": "C=C/C=C\\CC1=C(C)[C@@H](O[P@](=O)(CCCCCCCC)Oc2ccc([N+](=O)[O-])cc2)CC1=O", "note": "[4b]", "IC50": 14.1}, {"compound": "C/C=C\\CC1=C(C)[C@@H](O[P@@](=O)(CCCCCCCC)Oc2ccc([N+](=O)[O-])cc2)CC1=O", "note": "[5a, (S)p, (S) c-2-Methyl-4-oxo-3-((Z)-2-buten-1-yl)cyclopent-2-en-1-yl 4-Nitrophenyl n-Octylphosphonate]", "IC50": 120}, {"compound": "C/C=C\\CC1=C(C)[C@@H](O[P@](=O)(CCCCCCCC)Oc2ccc([N+](=O)[O-])cc2)CC1=O", "note": "[5b, (R)p, (S)c-2-Methyl-4-oxo-3-((Z)-2-buten-1-yl)cyclopent-2-en-1-yl 4-Nitrophenyl n-Octylphosphonate]", "IC50": 27.5}, {"compound": "CC/C=C\\CC1=C(C)[C@@H](O[P@@](=O)(CCCCCCCC)Oc2ccc([N+](=O)[O-])cc2)CC1=O", "note": "[6a, (S)p, (S)c-2-Methyl-4-oxo-3-((Z)-2-penten-1-yl)cyclopent-2-en-1-yl 4-Nitrophenyl n-Octylphosphonate]", "IC50": 309}, {"compound": "CC/C=C\\CC1=C(C)[C@@H](O[P@](=O)(CCCCCCCC)Oc2ccc([N+](=O)[O-])cc2)CC1=O", "note": "[6b, (R)p, (S)c-2-Methyl-4-oxo-3-((Z)-2-penten-1-yl)cyclopent-2-en-1-yl 4-Nitrophenyl n-Octylphosphonate]", "IC50": 38}]}]}
